The values below come from paper PMC12621043, “Un-LOK-ing a New Approach for Conformational Selective Targeting of STK10 (LOK)” (ACS Medicinal Chemistry Letters, 2025).

Experiment [1] concerns the target T1, STK10 (Homo sapiens, UniProt O94804).
T1 construct: purchased in-house DSF kinase panel (SGC-style construct names; the trailing letter is the construct ID)
The experiment in a line: Surface plasmon resonance (SPR). The conditions noted are these: 1:1 Langmuir kinetic model, 25 °C. It counts as binding. How it is done:
each well using a multichannel pipette (Eppendorf). Plates were incubated at 37 °C for 1 hour.
For substrate addition, 5 μL of 8 μM AQT0505 peptide was added to each well using the Mantis […]
temperature for an additional hour.
Fluorescence of the SOX-peptide was measured after excitation at 360 nm and emission at 487 nm using a PHERAstar plate reader (BMG Labtech). IC50 values were calculated by nonlinear regression of log[inhibitor] versus normalized response using GraphPad Prism 8 (www.graphpad.com, RRID:SCR_002798).
SPR. Surface plasmon resonance (SPR) experiments were conducted using a Biacore T200 instrument equipped with a Series S Sensor Chip NTA (Cytiva) at 25 °C. His-STK10 was immobilized at a flow rate of 10 µL/min on flow channels (FC) 2 while FC1 served as a blank reference without protein. Nickel loading of the chip was achieved by injecting 500 µM NiCl₂.
To activate the chip surface for covalent coupling, 483 mM EDC and 10 mM NHS were mixed in a 1:1 (v/v) ratio and injected. […]
Compound 23 was measured in duplicates using Multi-Cycle Kinetics, with 10 concentrations ranging from 0.01 µM to 5 μM injected across FC1 and FC2 at 30 µL/min for 150 s. Interaction data was FC1-referenced, blank-subtracted, solvent-corrected, and analyzed using Biacore T200 Evaluation Software version 3.2.1. […]
In general terms: Surface plasmon resonance follows binding to a sensor surface in real time, without labels.

Experiment [2] concerns SLK. On the set-up: method as in Serafim et al. The conditions noted are these: Figure 1, previous published dual STK10/SLK inhibitors, ref Serafim et al.; read-out: SLK cellular IC50; cited from earlier work.

T1 sequence (O94804 18-317 limits assumed): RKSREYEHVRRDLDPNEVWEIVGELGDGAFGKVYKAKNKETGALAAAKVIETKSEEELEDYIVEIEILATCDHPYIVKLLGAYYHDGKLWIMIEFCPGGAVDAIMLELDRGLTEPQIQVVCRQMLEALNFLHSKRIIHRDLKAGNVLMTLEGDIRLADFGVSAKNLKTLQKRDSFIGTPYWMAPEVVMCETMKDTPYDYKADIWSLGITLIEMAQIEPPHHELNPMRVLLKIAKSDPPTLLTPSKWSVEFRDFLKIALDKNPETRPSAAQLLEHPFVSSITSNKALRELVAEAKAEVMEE

For `Cc1cc(Cl)ccc1CNC(=O)Nc1ccc2cc1OCCOCCNc1ccn3ncc-2c3n1` [compound 23], the Kd in experiment [1] worked out at 365 ± 45 nM.

As for `COc1ccc(CNC(=O)Nc2ccc3cc2OCCOCCNc2ccn4ncc-3c4n2)cc1` [compound 31], in experiment [2], the half-inhibitory concentration (IC50) is 700 nM.

Broadly, the Kd is the equilibrium constant for the complex coming apart. Low values mean a tighter complex, high ones a looser complex. Usually IC50 stands for the concentration at which inhibition is half-maximal.
